Test results taken from patent publication US20180185347A1, “TETRAHYDROCYCLOPENTA[B]INDOLE COMPOUNDS AND PHOSPHODIESTERASE INHIBITORS FOR THE TREATMENT OF THE SIGNS AND SYMPTOMS OF BHP” (Transition Therapeutics (Ireland 2) Limited, priority 2016, published 2018).
Entries after “also recorded” stand apart in the source; their conditions may differ.

Tests used:
orchidectomized rats [1] = experiment: Prostate and seminal vesicle weight in delayed ORX rat model (SV/Prostate risk); conditions: for prostate or seminal vesical weights: delayed ORX rats, 2 or 8 weeks, doses up to 20-30 mg/kg
From the text: (§1) Orchidectomized (ORX) and sham-operated Wistar male rats were used (orchidectomized at 8 weeks of age and allowed to waste for 4 weeks). […] Rats were randomized and placed into treatment groups (n=6) based on body weight. Route of administration for all groups except testosterone enanthate (TE was given sub-cutaneously) was oral. At the end of 2 weeks of daily rats were euthanized, weighed & tissue harvested. Levator ani, prostates, and seminal vesicles were collected from each animal. Results are plotted as means±SE.

dogs = experiment: Dog toxicology program: prostate weight and atrophy; assay type: in vivo; set-up: key to Prostate weight (mean % decrease): “”: no effect observed; conditions: for Prostate weight (mean % decrease): dog
PSA levels = experiment: PSA in healthy subjects (Study GPBC, Phase 1); assay type: in vivo, human
From the text: The results of this study are illustrated in FIG. 6.

[2] = Study GPBA single oral dose pharmacokinetics; conditions: human, in vivo, healthy subjects; for Cmax: geometric mean; for Tmax: median
[3] = molecular target: T1, 17-beta-Hydroxysteroid Dehydrogenase Type 2 (Homo sapiens, UniProt P37059); experiment: Metabolism by 17-beta-HSD type 2; assay type: in vitro ADME
T1 sequence (P37059 1-387): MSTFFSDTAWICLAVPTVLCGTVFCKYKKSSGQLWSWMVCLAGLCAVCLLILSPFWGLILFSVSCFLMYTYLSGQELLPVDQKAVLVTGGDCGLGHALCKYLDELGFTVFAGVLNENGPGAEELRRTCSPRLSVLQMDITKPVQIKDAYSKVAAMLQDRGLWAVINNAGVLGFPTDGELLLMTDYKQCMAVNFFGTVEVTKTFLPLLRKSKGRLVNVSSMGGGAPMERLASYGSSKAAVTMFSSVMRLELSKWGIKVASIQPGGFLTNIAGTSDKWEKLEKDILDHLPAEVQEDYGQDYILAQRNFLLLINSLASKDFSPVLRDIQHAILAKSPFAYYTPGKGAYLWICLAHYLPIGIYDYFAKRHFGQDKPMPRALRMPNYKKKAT

orchidectomized rats [4] = experiment: Testosterone induced prostate / seminal vesicle growth in delayed ORX rat model; assay type: in vivo
From the text: as §1

[5] = Clinical safety and laboratory parameters; conditions: for hemoglobin and hematocrit: any dose tested, 12 weeks
orchidectomized rats [6] = experiment: Levator ani / bulbocavernous muscle weight in delayed ORX rat model; assay type: in vivo
From the text: Results are plotted as means±SE.
Following the androgen deficiency in the ORX model, the Levator ani- and bulbocavernous muscle weights decreased in size.

[7] = molecular target: T2, serum hormone binding globulin (Homo sapiens, UniProt P04278); experiment: Affinity to serum hormone binding globulin; conditions: at 10 μM
T2 sequence (P04278 30-402): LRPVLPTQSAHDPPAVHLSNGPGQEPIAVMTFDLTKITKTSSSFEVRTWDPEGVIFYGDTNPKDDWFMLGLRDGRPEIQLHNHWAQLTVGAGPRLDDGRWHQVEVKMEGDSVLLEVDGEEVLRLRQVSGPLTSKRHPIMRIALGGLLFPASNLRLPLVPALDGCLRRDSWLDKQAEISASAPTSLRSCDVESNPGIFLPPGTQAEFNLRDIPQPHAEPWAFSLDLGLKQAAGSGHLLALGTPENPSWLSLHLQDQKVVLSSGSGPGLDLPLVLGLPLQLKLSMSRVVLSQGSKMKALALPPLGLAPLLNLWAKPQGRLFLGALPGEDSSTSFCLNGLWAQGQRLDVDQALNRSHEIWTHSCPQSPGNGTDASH

## CC(C)OC(=O)N[C@H]1Cc2c(n(Cc3ccccn3)c3ccc(C#N)cc23)C1 [compound of Formula II, (S)-(7-cyano-4-pyridin-2-ylmethyl-1,2,3,4-tetrahydro-cyclopenta[b]indol-2-yl)-carbamic acid isopropyl ester]
Orchidectomized rats [1]; 30 mg/kg, the highest dose examined
  changes in the prostate of orchidectomized rats: did not induce changes
Orchidectomized rats [1]
  prostate or seminal vesical weights: had no effect; also recorded: minimal accrual SV/Prostate risk
Orchidectomized rats [1]; listed as TT701
  prostate or seminal vesical weights: minimal accrual SV/Prostate risk
dogs; 1+ months, 3 mg/kg/day
  Prostate weight (mean % decrease): “”
dogs; 1+ months, 30 mg/kg/day
  Prostate weight (mean % decrease): “”
dogs; 1+ months, 150 mg/kg/day
  Prostate weight (mean % decrease): “”
dogs; 6+ months, 3 mg/kg/day
  Prostate weight (mean % decrease): ^↓63%
dogs; 6+ months, 30 mg/kg/day
  Prostate weight (mean % decrease): ^↓66%
dogs; 6+ months, 150 mg/kg/day
  Prostate weight (mean % decrease): ^↓75%
dogs; 12 months, 3 mg/kg/day
  Prostate weight (mean % decrease): ^↓60%
dogs; 12 months, 10 mg/kg/day
  Prostate weight (mean % decrease): ^↓62%
dogs; 12 months, 100 mg/kg/day
  Prostate weight (mean % decrease): ^↓80%
dogs; dogs, by 3 months (so in the source)
  decreases in prostate weight: 60-75%
dogs; normal dogs, six-month treatment period
  decrease in prostate size: 60%
PSA levels; Study GPBC, healthy subjects, 1 mg to 75 mg daily for 28 days
  PSA test, effect on the prostate: neutral to negative effect (decreasing PSA)
PSA levels; clinical studies, any dose level (up to 75 mg doses)
  PSA: No increases in PSA were observed
[2]; single oral dose 5 mg
  Cmax: 25.9 ng/mL
  Tmax: 5 h
[2]; single oral dose 25 mg
  Cmax: 123 ng/mL
  Tmax: 4 h
[2]; single oral dose 250 mg
  Cmax: 589 ng/mL
  Tmax: 5 h
[2]; single oral dose 500 mg
  Cmax: 817 ng/mL
  Tmax: 4 h
[2]; single oral dose 1000 mg
  Cmax: 910 ng/mL
  Tmax: 4.5 h
[3]
  metabolism by 17-beta-Hydroxysteroid Dehydrogenase Type 2 class of enzymes: not metabolized
Orchidectomized rats [4]; 1 mg/kg/d + 3 mg/kg/d
  prostate weights, Abs(Dif)-LSD vs ORX + TE control: −0.11
  seminal vesicle wet weights, Abs(Dif)-LSD vs ORX + TE control: −0.34
Orchidectomized rats [4]; 1 mg/kg/d + 10 mg/kg/d
  prostate weights, Abs(Dif)-LSD vs ORX + TE control: 0.036
  seminal vesicle wet weights, Abs(Dif)-LSD vs ORX + TE control: 0.078
Orchidectomized rats [4]; 1 mg/kg/d + 30 mg/kg/d
  prostate weights, Abs(Dif)-LSD vs ORX + TE control: 0.025
Orchidectomized rats [4]; ORX rat, TE 1 mg/kg/d + 3, 10 and 30 mg/kg/d, 2 weeks
  prostate and seminal vesical weights normalized to body weight compared to TE alone: decreasing prostate weight and seminal vesical weights; also recorded: reduced testosterone induced effects on prostate size
[5]; Study GPEC
  HDL cholesterol levels and apolipoprotein A1: decreased
[5]; Study GPEC, 12-week, elderly men, with reduction of SHBG
  testosterone: clinically meaningful decrease
[5]; clinical studies
  systolic blood pressure, diastolic blood pressure, or heart rate: did not yield any significant changes
[5]; clinical studies in patients with androgen deficiency
  decrease in the levels of endogenous testosterone: 20-30%
[5]; clinical studies, any dose
  total bilirubin, GGT, or alkaline phosphatase: no significant increases
[5]; clinical
  hemoglobin and hematocrit: no increases
[5]; clinical, listed as TT701
  hemoglobin and hematocrit: no change in Hematocrit
[5]; clinical, to date
  immunotoxicity safety signal: no immunotoxicity safety signal has been observed
[5]; human, in vivo
  dose demonstrated safe in clinical studies: up to 1000 mgs/day
[5]; patients, 5 mg for 12 weeks
  decrease in HDL: 20%
[5]; phase 2 study, three subjects, two ≥2×ULN, one ≥3×ULN
  liver transaminases (AST or ALT): transient abnormal AST or ALT
Orchidectomized rats [6]; Rattus norvegicus, read-out: ED50 for the levator ani muscle
  ED50: 1 to 3 mg/kg
Orchidectomized rats [6]; delayed ORX rat, 8 weeks, 1 to 3 mg/kg/day
  Levator ani- and bulbocavernous muscle weights: increased significantly
[7]
  affinity to serum hormone binding globulin: none detected
